Test results published in ChEMBL document CHEMBL1201861, “Genomics of Drug Sensitity in Cancer screening data, Wellcome Trust Sanger Institute”.
pIC50: −log10 of the molar value.

Tests used:
Experiment in all cases: cells
Assay type in all cases: functional, cell-based, Homo sapiens
HuO-3N1 = test system: HuO-3N1;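 further: cell viability readout used to measure how strongly compounds suppress proliferation of human HuO-3N1 cells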
Description: SANGER: Inhibition of human HuO-3N1 cell growth in a cell viability assay.

HCC1937 = test system: HCC1937;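 further: growth inhibition measured with a cell viability read-out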
Description: SANGER: Inhibition of human HCC1937 cell growth in a cell viability assay.

LCLC-97TM1 = test system: LCLC-97TM1;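 further: cell viability assay measuring growth inhibition of human LCLC-97TM1 cells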
Description: SANGER: Inhibition of human LCLC-97TM1 cell growth in a cell viability assay.

NCI-H2342 = test system: NCI-H2342;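 further: growth inhibition of the cancer cell line, determined with a cell viability assay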
Description: SANGER: Inhibition of human NCI-H2342 cell growth in a cell viability assay.

OAW-42 = test system: OAW-42;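 further: growth inhibition of OAW-42 cells, read out with a cell viability assay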
Description: SANGER: Inhibition of human OAW-42 cell growth in a cell viability assay.

MCF7 = test system: MCF7;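 further: growth inhibition of human MCF7 cells, read out with a cell viability assay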
Description: SANGER: Inhibition of human MCF7 cell growth in a cell viability assay.

NB7 = test system: NB7;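 further: growth inhibition of NB7 cells, read out with a cell viability assay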
Description: SANGER: Inhibition of human NB7 cell growth in a cell viability assay.

SW837 = test system: SW837;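 further: growth inhibition of SW837 cells, determined with a cell viability assay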
Description: SANGER: Inhibition of human SW837 cell growth in a cell viability assay.

A673 = test system: A673;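 further: growth inhibition of human A673 cells, read out through a cell viability assay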
Description: SANGER: Inhibition of human A673 cell growth in a cell viability assay.

RT-112 = test system: RT-112
Description: SANGER: Inhibition of human RT-112 cell growth in a cell viability assay.

COLO-741 = test system: COLO-741
Description: SANGER: Inhibition of human COLO-741 cell growth in a cell viability assay.

SW 1116 = test system: SW 1116;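 further: growth inhibition of SW1116 cells, read out with a cell viability assay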
Description: SANGER: Inhibition of human SW1116 cell growth in a cell viability assay.

639-V = test system: 639-V;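 further: growth inhibition of 639-V cells, read out with a cell viability assay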
Description: SANGER: Inhibition of human 639-V cell growth in a cell viability assay.

COLO-678 = test system: COLO-678
Description: SANGER: Inhibition of human COLO-678 cell growth in a cell viability assay.

MDA-MB-453 = test system: MDA-MB-453
Description: SANGER: Inhibition of human MDA-MB-453 cell growth in a cell viability assay.

SCC-25 = test system: SCC-25;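 further: growth inhibition of SCC-25 cells, measured with a cell viability assay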
Description: SANGER: Inhibition of human SCC-25 cell growth in a cell viability assay.

NCI-H1573 = test system: NCI-H1573;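 further: growth inhibition of NCI-H1573 cells, read out with a cell viability assay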
Description: SANGER: Inhibition of human NCI-H1573 cell growth in a cell viability assay.

MOLT-13 = test system: MOLT-13;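 further: IC50 for suppression of MOLT-13 cell growth, read out with a cell viability assay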
Description: SANGER: Inhibition of human MOLT-13 cell growth in a cell viability assay.

ACHN = test system: ACHN;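 further: cell viability read-out used to gauge how strongly growth of human ACHN cells is suppressed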
Description: SANGER: Inhibition of human ACHN cell growth in a cell viability assay.

HSC-4 = test system: HSC-4;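 further: growth inhibition of human HSC-4 cells, read out with a cell viability assay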
Description: SANGER: Inhibition of human HSC-4 cell growth in a cell viability assay.

MFE-280 = test system: MFE-280;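 further: growth inhibition of MFE-280 cells, determined with a cell viability readout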
Description: SANGER: Inhibition of human MFE-280 cell growth in a cell viability assay.

CP50-MEL-B = test system: CP50-MEL-B;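 further: growth inhibition of the human cell line, measured with a cell viability read-out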
Description: SANGER: Inhibition of human CP50-MEL-B cell growth in a cell viability assay.

NCI-H661 = test system: NCI-H661;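 further: cell viability assay read-out, IC50 being the concentration that inhibits growth of the cells by half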
Description: SANGER: Inhibition of human NCI-H661 cell growth in a cell viability assay.

OVCAR-5 = test system: OVCAR-5;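 further: growth inhibition of human OVCAR-5 cells, read out with a cell viability assay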
Description: SANGER: Inhibition of human OVCAR-5 cell growth in a cell viability assay.

NCI-H2347 = test system: NCI-H2347;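 further: growth inhibition of the cell line, read out with a cell viability assay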
Description: SANGER: Inhibition of human NCI-H2347 cell growth in a cell viability assay.

KNS-62 = test system: KNS-62;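 further: inhibition of cell growth, read out with a cell viability assay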
Description: SANGER: Inhibition of human KNS-62 cell growth in a cell viability assay.

T98G = test system: T98G;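 further: growth inhibition of T98G cells, read out by a cell viability assay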
Description: SANGER: Inhibition of human T98G cell growth in a cell viability assay.

A204 = test system: A204;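 further: growth inhibition of human A204 cells, read out with a cell viability assay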
Description: SANGER: Inhibition of human A204 cell growth in a cell viability assay.

MDA-MB-361 = test system: MDA-MB-361
KYSE-450 = test system: KYSE-450;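 further: cell growth inhibition measured by a viability assay in human KYSE-450 cells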
Description: SANGER: Inhibition of human KYSE-450 cell growth in a cell viability assay.

Huh-7 = test system: Huh-7;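 further: HuH-7 cell growth inhibition, read out with a cell viability assay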
Description: SANGER: Inhibition of human HuH-7 cell growth in a cell viability assay.

T84 = test system: T84;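 further: growth inhibition measured with a cell viability readout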
Description: SANGER: Inhibition of human T84 cell growth in a cell viability assay.

NCI-H28 = test system: NCI-H28;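 further: growth inhibition of human NCI-H28 cells, read out as cell viability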
Description: SANGER: Inhibition of human NCI-H28 cell growth in a cell viability assay.

NCI-H2009 = test system: NCI-H2009;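 further: cell viability assay measuring inhibition of NCI-H2009 cell growth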
Description: SANGER: Inhibition of human NCI-H2009 cell growth in a cell viability assay.

CAL-39 = test system: CAL-39;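 further: cell viability assay measuring growth inhibition of CAL-39 cells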
Description: SANGER: Inhibition of human CAL-39 cell growth in a cell viability assay.

G-402 = test system: G-402
Description: SANGER: Inhibition of human G-402 cell growth in a cell viability assay.

CO[C@H]1C[C@@H]2CC[C@@H](C)[C@@](O)(O2)C(=O)C(=O)N2CCCC[C@H]2C(=O)O[C@H]([C@H](C)C[C@@H]2CC[C@@H](OC(=O)C(C)(CO)CO)[C@H](OC)C2)CC(=O)[C@H](C)/C=C(\C)[C@@H](O)[C@@H](OC)C(=O)[C@H](C)C[C@H](C)/C=C/C=C/C=C/1C [TEMSIROLIMUS]
pIC50 (HuO-3N1; Homo sapiens, HuO-3N1): 7.64 | pIC50 (HCC1937; Homo sapiens, HCC1937): < 6.70 | pIC50 (LCLC-97TM1; Homo sapiens, LCLC-97TM1): < 6.70 | pIC50 (NCI-H2342; Homo sapiens, NCI-H2342): < 6.70 | pIC50 (OAW-42; Homo sapiens, OAW-42): < 6.70 | pIC50 (MCF7; Homo sapiens, MCF7): < 6.70 | pIC50 (NB7; Homo sapiens, NB7): 7.75 | pIC50 (SW837; Homo sapiens, SW837): < 6.70 | pIC50 (A673; Homo sapiens, A673): 6.79 | pIC50 (RT-112; Homo sapiens, RT-112): 7.33 | pIC50 (COLO-741; Homo sapiens, COLO-741): < 6.70 | pIC50 (SW 1116; Homo sapiens, SW 1116): < 6.70 | pIC50 (639-V; Homo sapiens, 639-V): < 6.70 | pIC50 (COLO-678; Homo sapiens, COLO-678): < 6.70 | pIC50 (MDA-MB-453; Homo sapiens, MDA-MB-453): < 6.70 | pIC50 (SCC-25; Homo sapiens, SCC-25): < 6.70 | pIC50 (NCI-H1573; Homo sapiens, NCI-H1573): < 6.70 | pIC50 (MOLT-13; Homo sapiens, MOLT-13): < 6.70 | pIC50 (ACHN; Homo sapiens, ACHN): < 6.70 | pIC50 (HSC-4; Homo sapiens, HSC-4): > 9.11 | pIC50 (MFE-280; Homo sapiens, MFE-280): < 6.70 | pIC50 (CP50-MEL-B; Homo sapiens, CP50-MEL-B): < 6.70 | pIC50 (NCI-H661; Homo sapiens, NCI-H661): 6.93 | pIC50 (OVCAR-5; Homo sapiens, OVCAR-5): 6.91 | pIC50 (NCI-H2347; Homo sapiens, NCI-H2347): < 6.70 | pIC50 (KNS-62; Homo sapiens, KNS-62): 7.30 | pIC50 (T98G; Homo sapiens, T98G): 7.58 | pIC50 (A204; Homo sapiens, A204): 7.41 | pIC50 (MDA-MB-361; Homo sapiens, MDA-MB-361): < 6.70 | pIC50 (KYSE-450; Homo sapiens, KYSE-450): < 6.70 | pIC50 (Huh-7; Homo sapiens, Huh-7): 7.91 | pIC50 (T84; Homo sapiens, T84): < 6.70 | pIC50 (NCI-H28; Homo sapiens, NCI-H28): < 6.70 | pIC50 (NCI-H2009; Homo sapiens, NCI-H2009): < 6.70 | pIC50 (CAL-39; Homo sapiens, CAL-39): 7.40 | pIC50 (G-402; Homo sapiens, G-402): < 6.70

CISPLATIN
pIC50 (HuO-3N1; huo-3n1): 5.05 | pIC50 (HCC1937; hcc1937): 3.86 | pIC50 (LCLC-97TM1; lclc-97tm1): 4.70 | pIC50 (NCI-H2342; nci-h2342): 4.27 | pIC50 (OAW-42; oaw-42): 5.06 | pIC50 (MCF7; mcf7): 4.82 | pIC50 (NB7; nb7): 4.81 | pIC50 (SW837; sw837): 3.72 | pIC50 (A673; a673): 5.66 | pIC50 (RT-112; rt-112): 4.84 | pIC50 (COLO-741; colo-741): 4.54 | pIC50 (SW 1116; sw 1116): 3.80 | pIC50 (639-V; 639-v): 5.23 | pIC50 (COLO-678; colo-678): 3.21 | pIC50 (MDA-MB-453; mda-mb-453): 4.59 | pIC50 (SCC-25; scc-25): 4.19 | pIC50 (NCI-H1573; nci-h1573): 3.95 | pIC50 (MOLT-13; molt-13): 3.42 | pIC50 (ACHN; achn): 5.09 | pIC50 (HSC-4; hsc-4): 5.80 | pIC50 (MFE-280; mfe-280): 3.20 | pIC50 (CP50-MEL-B; cp50-mel-b): 3.66 | pIC50 (NCI-H661; nci-h661): 4.87 | pIC50 (OVCAR-5; ovcar-5): 5.40 | pIC50 (NCI-H2347; nci-h2347): 3.66 | pIC50 (KNS-62; kns-62): 4.85 | pIC50 (T98G; t98g): 3.85 | pIC50 (A204; a204): 4.19 | pIC50 (MDA-MB-361; mda-mb-361): 4.73 | pIC50 (KYSE-450; kyse-450): 4.14 | pIC50 (Huh-7; huh-7): 4.39 | pIC50 (T84; t84): 3.45 | pIC50 (NCI-H28; nci-h28): 3.93 | pIC50 (NCI-H2009; nci-h2009): 3.30 | pIC50 (CAL-39; cal-39): 3.54 | pIC50 (G-402; g-402): 5.15
